Reference: publication PMC6169531 (Journal of molecular biology, 2016)

Assays:
Experiment in all cases: inhibition of methyl p-nitrophenyl phosphate hydrolysis, […] nm
Assay type in all cases: biochemical
[1] = target: AP (Escherichia coli alkaline phosphatase) (Escherichia coli, UniProt P00634, D175A)
[2] = target: AP (Escherichia coli alkaline phosphatase) (Escherichia coli, UniProt P00634, K350A)
[3] = target: AP (Escherichia coli alkaline phosphatase) (Escherichia coli, UniProt P00634, D123A)
[4] = target: AP (Escherichia coli alkaline phosphatase) (Escherichia coli, UniProt P00634, E344Y)
AP (Escherichia coli alkaline phosphatase) (Escherichia coli, UniProt P00634, E344Y), sequence (P00634 23-471 E344Y): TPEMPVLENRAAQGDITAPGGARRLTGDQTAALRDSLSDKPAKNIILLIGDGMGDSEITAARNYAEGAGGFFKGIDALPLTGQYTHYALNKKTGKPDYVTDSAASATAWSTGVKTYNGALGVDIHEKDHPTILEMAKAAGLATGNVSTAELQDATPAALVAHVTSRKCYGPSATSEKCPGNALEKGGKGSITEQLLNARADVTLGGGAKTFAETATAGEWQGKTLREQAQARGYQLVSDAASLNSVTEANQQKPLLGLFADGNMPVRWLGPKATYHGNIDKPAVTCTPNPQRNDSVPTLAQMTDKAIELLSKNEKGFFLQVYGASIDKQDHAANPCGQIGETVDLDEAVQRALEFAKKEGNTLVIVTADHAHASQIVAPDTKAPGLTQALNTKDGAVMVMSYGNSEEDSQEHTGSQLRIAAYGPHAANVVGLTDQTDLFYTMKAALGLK

AP (Escherichia coli alkaline phosphatase) (Escherichia coli, UniProt P00634, K350A), sequence (P00634 23-471 K350A): as the sequence (P00634 23-471 E344Y) above, with Y322E, K328A counted along it
AP (Escherichia coli alkaline phosphatase) (Escherichia coli, UniProt P00634, D123A), sequence (P00634 23-471, stated change not applied): as the sequence (P00634 23-471 E344Y) above, with Y322E counted along it
AP (Escherichia coli alkaline phosphatase) (Escherichia coli, UniProt P00634, D175A), sequence (P00634 23-471 D175A): as the sequence (P00634 23-471 E344Y) above, with D153A, Y322E counted along it

Row | SMILES | Ki [1] [µM] | Ki [2] [µM] | Ki [3] [µM] | Ki [4] [µM]
1 | [O]=[W](=[O])([OH])[OH] [tungstate] | 64 | 44 | 99 | –
2 | [O]=[V]([OH])([OH])[OH] [vanadate] | 17 | 9.4 | 13 | 28
